Values of other authors, collected in patent US7834030B2, “Phenyl-[1,2,4]-oxadiazol-5-one derivatives, pharmaceutical compositions and therapeutic use thereof” (Sanofi-Aventis, priority 2005, dated 2010).
Where two headings read alike, the source gives them in different places.

Key:
[1] = obese, insulin resistant rhesus monkeys; cited from earlier work
[2] = diabetic animal model; cited from earlier work
[3] = rhesus monkeys; cited from earlier work
[4] = cynomolgus monkeys; cited from earlier work
[5] = healthy volunteers, two weeks clinical trials; cited from earlier work

Cc1cc(SCc2sc(-c3ccc(C(F)(F)F)cc3)nc2C)ccc1OCC(=O)O [GW501516]
HDL-cholesterol [1]: raises | insulin levels [1]: decreases | plasma LDL-cholesterol [1]: decreases | triglycerides [1]: decreases

CCCc1c(OCCCOc2ccc(OCC(=O)O)cc2)ccc(C(C)=O)c1O [Example L-165041]
plasma cholesterol [2]: raises plasma cholesterol

CCCc1c(OCCCSc2nnc(SCC(=O)O)s2)ccc(C(C)=O)c1O [YM-16638]
plasma lipids [3]: significantly lowers | plasma lipids [4]: significantly lowers | plasma lipids [5]: acts in a similar manner
